One data set concerns WT mice. The data set can be described thus: Locomotor activity in WT mice. The following applies: WT mice.
Data set [1] concerns the target T1, hM3Dq (Homo sapiens, UniProt P20309, A239G/Y149C). Particulars: D1-hM3Dq mice, 0.01 to 1 mg kg-1.
Text: (§1) Wild-type mice (C57BL/6J) were ordered from Jackson Laboratories and rats (Sprague–Dawley) were ordered from Charles River. Rodents were male and ordered at ~6 weeks of age. Transgenic mice were bred at NIDA breeding facility. […] Three male rhesus monkeys (Macaca mulatta) weighed 8–12 kg. All experiments and procedures complied with all relevant ethical regulations for animal testing and research and followed NIH guidelines and were approved by each institute’s animal care and use committees.
(§2) Ten minutes after injection, animals were placed in an open field arena (Opto-varimex ATM3, Columbus Instruments) and their locomotor activity was tracked during 60 min as infrared beam crossings and traveled distance was converted to cm. Animals were repeatedly tested on consecutive sessions (after an initial habituation session with no drug treatment) in a counterbalanced design.
For a further data set, the system named is striatal DREADDs. The data set can be described thus: [11C]clozapine PET DREADD occupancy in AAV-DREADD mice. Particulars: 0.1 mg kg-1 IP.
The target in data set [2] is T1, hM3Dq. The data set is described as follows: [3H]clozapine competition binding, membranes of HEK-293 cells expressing hM3Dq.
Experimental: Cells were routinely tested for myclopasma contamination (MycoAlert® Mycoplasma Detection Kit, Lonza). Cells were seeded on 60 cm^2 dishes at 4 × 10^6 cells/dish 24 h before transfection. The indicated amount of cDNA was transfected into HEK-293 cells using polyethylenimine (PEI; Sigma-Aldrich) in a 1–2 DNA:PEI ratio. Cell harvesting for radioligand binding experiments or signaling assays were performed approximately 48 h after transfection.
Cells were suspended in Tris-HCl 50 mM pH 7.4 supplemented with protease inhibitor cocktail (1:100, Sigma-Aldrich, St. Louis, MO, USA). The dissected brain tissue was diluted in Tris-HCl 50 mM buffer supplemented with protease inhibitor cocktail (1:1000). HEK-293 cells or brain tissue were disrupted with a Polytron homogenizer (Kinematica, Basel, Switzerland). Homogenates were centrifuged at 48,000g (50 min, 4 °C) and washed twice in the same conditions to isolate the membrane fraction. Protein was quantified by the bicinchoninic acid method (Pierce). […] In all cases, free and membrane-bound radioligand were separated by rapid filtration of 500-μl aliquots in a 96-well plate harvester (Brandel, Gaithersburg, MD, USA) and washed with 2 ml of ice-cold Tris-HCl buffer. […] One-site competition curves were fitted using Prism 7 (GraphPad Software, La Jolla, CA, USA). Ki values were calculated using the Cheng–Prusoff equation.
A further data set deals with T2, P-gp (Homo sapiens, UniProt P08183).
T2 construct: host or cells: Caco-2
The data set can be described thus: P-glycoprotein (P-gp) substrate assay in Caco-2 cells with and without verapamil. The format is in vitro ADME. The following applies: Caco-2, efflux ratio with/without verapamil. As for the experimental part: These experiments were performed by an outside vendor (Eurofins, France). C21 was tested in P-gp substrate assessment assays at 10 µM. The A to B and B to A permeability was measured in Caco-2 cells in the presence and absence of verapamil, a P-gp inhibitor. Efflux ratios (E) were calculated based on the apparent B–A and A–B permeability with and without verapamil. In each experiment, the respective reference compound was tested concurrently with the test compound to assess the assay reliability. Fluorescein was used as the cell monolayer integrity marker. Fluorescein permeability assessment (in the A–B direction at pH 7.4 on both sides) was performed after the permeability assay for the test compound.
Background: Caco-2 cells form a polarised layer with tight junctions and transporters.

Data set [3] deals with untransfected HEK-293 cells. The data set is described as follows: Negative controls of the functional assays: HEK-293 cells without DREADD. The format is cell-based, human.
The target of data set [4] is T3, hM4Di (Homo sapiens, UniProt P08173, A203G/Y113C).
T3 sequence (P08173 1-479 Y113C/A203G): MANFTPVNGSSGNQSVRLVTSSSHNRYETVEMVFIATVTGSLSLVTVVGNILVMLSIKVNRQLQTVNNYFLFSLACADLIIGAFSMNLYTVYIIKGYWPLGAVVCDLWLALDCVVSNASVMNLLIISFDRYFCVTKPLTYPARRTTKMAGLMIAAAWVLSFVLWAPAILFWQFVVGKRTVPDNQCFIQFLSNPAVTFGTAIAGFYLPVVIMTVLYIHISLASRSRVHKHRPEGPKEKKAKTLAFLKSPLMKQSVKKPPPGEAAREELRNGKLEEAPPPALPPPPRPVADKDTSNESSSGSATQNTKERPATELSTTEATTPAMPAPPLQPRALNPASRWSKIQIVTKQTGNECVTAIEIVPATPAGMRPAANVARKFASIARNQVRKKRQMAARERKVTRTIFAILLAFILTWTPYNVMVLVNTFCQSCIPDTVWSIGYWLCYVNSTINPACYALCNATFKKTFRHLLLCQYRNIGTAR
The data set can be described thus: Locomotor activity in D1-hM4Di mice.
Text: as §1, §2

Data set [5] addresses T3, hM4Di. The data set can be described thus: BRET Galpha-o1 protein activation assay in HEK-293 cells transfected with hM4Di. The format is cell-based. The arrangement: host or cells: HEK-293. The following applies: BRET-based assay in HEK-293 cells. As for the experimental part:
The indicated amount of cDNA was transfected into HEK-293 cells using polyethylenimine (PEI; Sigma-Aldrich) in a 1–2 DNA:PEI ratio. Cell harvesting for radioligand binding experiments or signaling assays were performed approximately 48 h after transfection.
BRET assays were performed to detect receptor ligand-induced Gαo1 protein activation. […] Forty-eight hour after transfection cells were harvested, washed and resuspended in phosphate-buffered saline (PBS). Approximately, 200,000 cells/well were distributed in 96-well plates, and 5 µM Coelenterazine H (substrate for luciferase) was added to each well. Five minutes after addition of Coelenterazine H, ligands were added to each well. […] Results were calculated for the BRET change (BRET ratio for the corresponding drug minus BRET ratio in the absence of the drug) 5 min after the addition of the ligands.
Background: Bioluminescence resonance energy transfer reports proximity on the nanometre scale.

This note sets out measurements from paper PMC6788984, “High-potency ligands for DREADD imaging and activation in rodents and monkeys” (Nature Communications, 2019).

pEC50, pKi: −log10 of the molar value. Where “and” joins values, the source holds several entries; their conditions need not be identical. Equal entries are not always repeated. Entries after “also recorded” stand apart in the source; their conditions may differ.

T2 sequence (P08183 whole entry): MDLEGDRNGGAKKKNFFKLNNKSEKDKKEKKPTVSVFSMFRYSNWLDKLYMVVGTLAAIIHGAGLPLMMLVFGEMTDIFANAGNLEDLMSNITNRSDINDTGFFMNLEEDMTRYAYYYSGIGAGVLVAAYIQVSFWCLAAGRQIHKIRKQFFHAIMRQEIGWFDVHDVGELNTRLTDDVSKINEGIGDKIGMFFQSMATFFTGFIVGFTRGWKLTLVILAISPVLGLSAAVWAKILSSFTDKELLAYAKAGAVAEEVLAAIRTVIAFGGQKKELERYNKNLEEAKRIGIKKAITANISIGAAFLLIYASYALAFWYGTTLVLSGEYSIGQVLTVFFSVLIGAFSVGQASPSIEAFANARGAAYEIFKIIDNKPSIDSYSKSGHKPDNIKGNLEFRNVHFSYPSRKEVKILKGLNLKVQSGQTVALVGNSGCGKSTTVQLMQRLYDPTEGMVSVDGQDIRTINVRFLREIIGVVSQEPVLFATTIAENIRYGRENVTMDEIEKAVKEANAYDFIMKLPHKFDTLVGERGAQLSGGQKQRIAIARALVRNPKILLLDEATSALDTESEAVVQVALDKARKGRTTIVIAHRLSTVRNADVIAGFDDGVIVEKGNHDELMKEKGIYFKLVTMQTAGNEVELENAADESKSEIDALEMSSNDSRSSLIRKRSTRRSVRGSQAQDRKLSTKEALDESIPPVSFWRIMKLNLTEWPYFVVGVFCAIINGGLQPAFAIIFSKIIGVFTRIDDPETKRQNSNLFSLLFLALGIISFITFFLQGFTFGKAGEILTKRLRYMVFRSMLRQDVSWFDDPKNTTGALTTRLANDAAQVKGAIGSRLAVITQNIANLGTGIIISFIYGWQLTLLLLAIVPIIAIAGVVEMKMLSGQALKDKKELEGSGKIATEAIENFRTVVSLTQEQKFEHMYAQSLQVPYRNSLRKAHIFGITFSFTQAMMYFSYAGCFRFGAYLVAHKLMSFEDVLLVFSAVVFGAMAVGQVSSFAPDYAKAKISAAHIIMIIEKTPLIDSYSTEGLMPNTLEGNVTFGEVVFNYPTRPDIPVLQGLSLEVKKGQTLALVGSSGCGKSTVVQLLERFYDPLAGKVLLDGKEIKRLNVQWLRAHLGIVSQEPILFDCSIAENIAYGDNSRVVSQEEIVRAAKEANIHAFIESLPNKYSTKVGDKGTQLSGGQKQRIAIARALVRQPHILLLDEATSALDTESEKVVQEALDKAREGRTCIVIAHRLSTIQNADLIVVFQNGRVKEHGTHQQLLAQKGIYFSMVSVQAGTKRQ
T1 sequence (P20309 whole entry Y149C/A239G): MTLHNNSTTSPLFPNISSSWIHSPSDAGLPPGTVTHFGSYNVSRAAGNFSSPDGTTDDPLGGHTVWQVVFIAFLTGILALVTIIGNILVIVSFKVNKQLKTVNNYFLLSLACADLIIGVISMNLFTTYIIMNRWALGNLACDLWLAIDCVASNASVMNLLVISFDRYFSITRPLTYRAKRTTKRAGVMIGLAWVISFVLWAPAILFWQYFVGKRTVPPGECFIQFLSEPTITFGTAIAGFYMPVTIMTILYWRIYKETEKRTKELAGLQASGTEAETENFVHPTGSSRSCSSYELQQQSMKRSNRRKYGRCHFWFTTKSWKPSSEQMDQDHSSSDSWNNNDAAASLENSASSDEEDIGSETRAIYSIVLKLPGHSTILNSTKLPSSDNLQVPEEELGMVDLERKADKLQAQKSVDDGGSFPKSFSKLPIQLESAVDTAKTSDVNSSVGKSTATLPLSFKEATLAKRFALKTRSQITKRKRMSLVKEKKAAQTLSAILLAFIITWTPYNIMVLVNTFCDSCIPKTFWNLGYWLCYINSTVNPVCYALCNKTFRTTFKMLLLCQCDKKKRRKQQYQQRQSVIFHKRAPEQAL
Text for WT mice: as §1, §2
Experimental for striatal DREADDs: Animals were anesthetized with isoflurane or a mix of ketamine/xylazine and prepped on a stereotaxic apparatus (Kopf, Germany). […] When indicated, animals were pretreated with vehicle or the indicated drug 10 min before the injection of the PET radiotracer. Total acquisition time was 60 min.
In all cases, the PET data were reconstructed and corrected for dead-time and radioactive decay. All qualitative and quantitative assessments of PET images were performed using the PMOD software environment (PMOD Technologies, Zurich Switzerland). Binding potential BPND (a relative measure of specific binding) was calculated using a reference tissue model using the cerebellum as a reference tissue in rodents. In macaques, the kinetic data were fitted to a two-tissue compartment model and the concentration of parent in plasma was used as an input function, then the volume of distribution ratios compared to cerebellum were calculated to establish BPND. In all cases, the dynamic PET images were coregistered to MRI templates and time-activity curves were generated using predefined volumes of interest (macaques) or manually drawn in rodents and the described analyses were performed. Receptor occupancy was calculated using the formula: occupancy = (BPND^0 − BPND^Drug)/BPND^0 × 100, where BPND^0 is the binding potential of the baseline condition and BPND^Drug the binding potential when the animals were pretreated with the drug.

As a reminder, the pKi is −log10 of the Ki, conventionally taken in molar units. A lower pKi goes with a large Ki. What is called pEC50 is −log10 of the EC50, conventionally taken in molar units. Higher therefore signals a small EC50. For the compound `CCN1CCN(C2=Nc3cc(Cl)ccc3Nc3cccc(F)c32)CC1` [JHU37152, 8-Chloro-11-(4-ethylpiperazin-1-yl)-1-fluoro-5H-dibenzo[b,e][1,4]diazepine], the locomotor activity entry in the data set on WT mice (0.01 to 1 mg kg-1) was “without any significant locomotor effects”; at hM3Dq [1], “selectively inhibiting locomotor activity”; at hM4Di [4] (D1-hM4Di mice, 0.01 to 1 mg kg-1), “selectively inhibiting locomotor activity”. In addition, the “Locomotor activity, individual animals (Figure 3 Panel A)” value is 95.2897 and 38.5088 and 39.3587 and 61.0726 and 69.3706 and 99.6544 and 90.1854 and 160.23 and 57.4795 and 29.9947 and 33.6903 and 133.302 and 88.2496 and 102.637 and 90.23 with WT mice (dose 0.01); 107.254 and 270.493 and 33.7361 and 22.8384 and 36.807 and 76.5906 and 34.7692 and 97.3133 and 74.027 and 53.9478 and 95.1236 and 125.045 and 39.4044 and 129.319 and 143.965 in the data set with WT mice (dose 0.1); 81.5049 and 96.9074 and 39.4517 and 156.512 and 62.1842 and 92.749 and 79.3711 and 129.761 and 80.0996 and 7.993 and 23.9209 and 25.8105 and 93.4157 and 30.5341 and 90.9279 with WT mice (dose 1). In addition, the “occupancy of striatal DREADDs” value in the data set on striatal DREADDs is reported as 15–20%. Besides, the pKi at hM3Dq [2] was 8.74. The P-gp substrate entry at P-gp was “Neither JHU37152 nor JHU37160 were P-gp substrates”; on P-gp (listed as J52), “none of these compounds is a substrate for P-gp”. For the same compound, the “functional response in HEK-293 cells lacking DREADDs” value in data set [3] is recorded as “no responses were observed; also recorded: did not produce any agonistic effect”. The “functional response, BRET (Go-alpha-Rluc8, beta1, gamma2-mVenus), no DREADD” value in data set [3] (HEK-293 cells) was “did not show any functional response”. Further, the “functional response, GCaMP6f, no DREADD” value in data set [3] (HEK-293 cells) is reported as “did not show any functional response”. The “Locomotor activity, individual animals (Figure 3 Panel C)” value at hM4Di [4] (dose 0.01) was 58.5024 and 108.441 and 109.915 and 131.721 and 115.402 and 75.1276 and 118.881 and 108.271 and 41.4007; on hM4Di [4] (dose 0.1) it was 72.1502 and 118.453 and 147.655 and 108.28 and 115.789 and 27.5857 and 55.2206 and 30.1649 and 43.619; on hM4Di [4] (dose 1), 21.6168 and 115.427 and 110.069 and 108.688 and 73.7541 and 20.9336 and 36.5894 and 6.171 and 23.7054. The pEC50 on hM4Di [5] was 9.30.
